{
  "source": "patent US9168282B2",
  "about": "“Method for treating neuronal damage and neurological diseases” (priority 2009, dated 2015)",
  "origin": "cited, not measured here",
  "key": {"herpes zoster patients [1]": {"system": "herpes zoster patients", "settings": "500 mg of Famciclovir three times per day, 7 days, meta-analysis data (Can Fam Physician 2008)"}, "herpes zoster patients [2]": {"system": "herpes zoster patients", "settings": "Famciclovir 500 mg three times per day, 7 days, meta-analysis data (Can Fam Physician 2008)"}},
  "data": [
    {"compound": "CC(=O)OCC(CCn1cnc2cnc(N)nc21)COC(C)=O", "note": "[Famciclovir]", "values": [
      {"measurement": "Median of time required for generating scab over the whole skin lesion", "setting": "herpes zoster patients [1]", "result": 5, "unit": "days"},
      {"measurement": "Median of time required for relieving pain", "setting": "herpes zoster patients [2]", "result": 20, "unit": "days"}
    ]}
  ]
}
